Results on two molecules are retold here after patent publication US10077436B2, “Beta-glucosidase enzymes for increased biomass saccharification” (Edeniq, Inc., priority 2013, dated 2018).

Holding throughout (type): biochemical
Test [1] deals with S-BG (Novozymes SP188 from Sigma), commercial beta-glucosidase. Kind of test: BG kinetics, cellobiose hydrolysis assay (HPLC) with glucose as competitive inhibitor, S-BG. The settings on record: cellobiose substrate, pH 4.8, 50° C. From the text:
(§1) The kinetic properties of beta glucosidase are important for cellulosic hydrolysis, since in commercial situations a wide range of substrate concentrations and different product inhibition conditions will be encountered. In this example, a Michaelis-Menten kinetics model was used to describe BG kinetics. To determine these kinetic properties, BG activity assays using standard substrates pNPG and cellobiose were employed. yEdQ745-BG (wild type) and yEdQ885-BG (improved), were compared with two commercial BGs, A-BG (Accellerase®) BG from Dupont) and S-BG (Novozymes SP188 from Sigma).
(§2) BG activity assay using cellobiose is the other standard assay to measure BG or cellobiase activity, which utilizes hydrolysis of cellobiose by cellobiase into two molecules of glucose, the last step of enzymatic hydrolysis of cellulose. One cellobiase unit (commonly termed as CBU) is defined as the amount of enzyme that converts […] of cellobiose or produces 2 μmol of glucose per min. Briefly, to determine BG activity, 25 μL of diluted enzyme in 50 mM citrate buffer (pH 4.8) equilibrated to 50° C. was mixed with 25 μL cellobiose (or cellobiose/glucose mixture for the kinetic study) to start the reaction. The mixture was incubated at 50° C. for 10 min, and the reaction was terminated by incubating the mixture at 99° C. for 5 min. Different methods are available to measure the glucose produced in the assays. For the kinetic study, HPLC was used.
To determine kinetic properties using cellobiose substrate, duplicate assays with cellobiose concentrations ranging from 0.47 to 15 mM and glucose concentrations of 0, 0.9, 4.5, 6.75, and 8.1 (for A-BG) or 9 (for all the other three BGs) g/L were performed. As for pNPG substrate, the range of cellobiose substrate concentration was chosen to show detectable activity at the lowest substrate concentration and saturation stage at high substrate concentration. However, in contrast to the pNPG substrate, when there was still some activity left at glucose concentration up to 36 g/L, most of the BG activity was lost at an inhibitor level of 9 g/L when cellobiose substrate was used. […] It should also be noted that colorimetric glucose assay cannot provide activity results for inhibitory glucose levels above 0.9 g/L after several trials. Therefore, HPLC measurements were used for kinetic studies using cellobiose substrate. It should be pointed out that the HPLC method may not be sensitive enough either to capture BG activity under more severe glucose inhibition conditions than 9 g/L of glucose. Moreover, theoretically there are two ways to measure BG activity by HPLC when cellobiose is used as the substrate: tracking consumption of cellobiose or tracking production of glucose. However, as shown by the example of one set of results from S-BG in Table 3, tracking glucose is problematic due to measurement sensitivity. In Table 3, A % is defined as follows and is an indicator of measurement sensitivity, since the difference of substrate or product concentrations before and after reaction was used to determine BG activity. Δ%=(start conc. of cellobiose−end conc. of cellobiose)/start conc. of cellobiose×100% (3) Δ%=(end conc. of glucose−start conc. of glucose)/start conc. of glucose×100% (4)
With increasing inhibitor (glucose) level, Δ% is decreasing. For the case of tracking glucose, Δ% was too small to be reliable when 4.5 g/L of glucose was added at the beginning. […] Thus, the approach of tracking cellobiose was chosen due to its higher detection sensitivity. In the substrate range used to determine kinetic parameters (0.47 to 30 mM for A-BG and 0.47 to 15 mM for the other three BGs), the detection sensitivity is reasonable.
A similar simultaneous nonlinear regression method based on the competitive inhibition equation expressed in Equation (1) was used to determine kinetic parameters of BG towards cellobiose. […]

Test [2] has as its system A-BG (Accellerase® BG from DuPont), commercial beta-glucosidase. The test can be described thus: BG kinetics, cellobiose hydrolysis assay (HPLC) with glucose as competitive inhibitor, A-BG. The settings on record: cellobiose substrate, pH 4.8, 50° C.
Source text: (§3) The kinetic properties of beta glucosidase are important for cellulosic hydrolysis, since in commercial situations a wide range of substrate concentrations and different product inhibition conditions will be encountered. In this example, a Michaelis-Menten kinetics model was used to describe BG kinetics.
as §2
To determine kinetic properties using cellobiose substrate, duplicate assays with cellobiose concentrations ranging from 0.47 to 15 mM and glucose concentrations of 0, 0.9, 4.5, 6.75, and 8.1 (for A-BG) or 9 (for all the other three BGs) g/L were performed. As for pNPG substrate, the range of cellobiose substrate concentration was chosen to show detectable activity at the lowest substrate concentration and saturation stage at high substrate concentration. […] Moreover, theoretically there are two ways to measure BG activity by HPLC when cellobiose is used as the substrate: tracking consumption of cellobiose or tracking production of glucose. […] In Table 3, A % is defined as follows and is an indicator of measurement sensitivity, since the difference of substrate or product concentrations before and after reaction was used to determine BG activity. Δ%=(start conc. of cellobiose−end conc. of cellobiose)/start conc. of cellobiose×100% (3) Δ%=(end conc. of glucose−start conc. of glucose)/start conc. of glucose×100% (4)
A similar simultaneous nonlinear regression method based on the competitive inhibition equation expressed in Equation (1) was used to determine kinetic parameters of BG towards cellobiose.
The specific activity used here was determined by the initial velocity approach that is required by implementing Michaelis-Menten model (Copeland, 2000). The specific activity was determined by measuring consumption of cellobiose in the first 10 min of reaction and was expressed as μmol min^−1 mg^−1, where mg^−1 means per mg of total protein. The relative activity was determined based on the maximum activity obtained in the absence of initial glucose inhibition.
(§4) The above experimental data were fit in the competitive inhibition model as expressed in Equation (1) by simultaneous nonlinear regression.

For test [3], the system named is S-BG (Novozymes SP188 from Sigma), commercial beta-glucosidase. Kind of test: BG kinetics, pNPG hydrolysis assay with glucose as competitive inhibitor, S-BG. The settings on record: pNPG substrate, pH 5.0, 50° C.
Source text: as §1
(§5) BG activity assay using pNPG is one of the two commonly used standard assays to measure BG activity, which utilizes hydrolysis of p-nitrophenyl-β-D-glucopyranoside (pNPG) by BG into a yellow colored product, p-nitrophenol (pNP), that has a strong absorbance at 405 nm. One pNPG unit is defined as the amount of enzyme that produces 1 μmol of pNP per min. Briefly, to determine BG activity, 25 μL of diluted enzyme in 200 mM sodium acetate buffer (pH 5.0) was mixed with 25 μL of the same buffer and 25 μL of RO water (or glucose solution for the kinetic study) and the mixture was preincubated at 50° C. for 5 min. The reaction was initiated by adding 25 μL of 10 mM pNPG in 200 mM sodium acetate buffer (pH 5.0) and the mixture was incubated at 50° C. for 10 min. The reaction was then terminated by adding 100 μL of 0.25 M sodium carbonate, and the amount of pNP produced was determined by measuring absorbance at 405 nm using a predetermined calibration curve.
The range of substrate concentration was chosen to show detectable activity at the lowest concentration and saturation stage at high substrate concentration. The upper limit of inhibitor (glucose) level was chosen to get as close as possible to the real conditions during saccharification (˜4% w/v glucose) and have a detectable residual activity.
(§6) To determine the kinetic properties, a competitive inhibition mechanism was hypothesized as proposed in the literature (Chauve et al, 2010; Krogh et al, 2010). The Michaelis-Menten equation with the competitive inhibition term can be expressed in Equation (1), where [S] is the substrate concentration (mM), [I] is the inhibitor concentration (mM), V is the rate of product formation (mM/min), Vmax is the maximal rate of product formation (mM/min), Km is the Michaelis-Menten constant and Ki is the inhibition constant. The turnover number, Kcat, can be calculated by Equation (2), where [Et] is the total amount of enzyme.
(§7) Conventionally, linearization methods can be used to determine the kinetic parameters based on Equation (1). Three common linear plots used are Lineweaver-Burke, Eadie-Hofstee and Hanes plots (Rogers and Gibon, 2009). However, these linearized versions of the Michaelis-Menten equation often produce substantial errors in parameter estimation. […] All of the activity data at different substrate levels and different inhibitor levels were fit simultaneously according to the full nonlinear equation for competitive enzyme inhibition as expressed in Equation (1). Thus, Vmax, Km and Ki can be determined simultaneously from this fitting process, and Km/Ki can then be calculated. Kcat can be obtained by Equation (2) and Kcat/Km can be calculated accordingly.
The above experimental data were fit in the competitive inhibition model as expressed in Equation (1) by simultaneous nonlinear regression. The order of maximum velocity (Vmax) is A-BG>yEdQ885-BG>S-BG≈yEdQ745-BG. […] Nevertheless, the in-house BGs have much higher dissociation constant for inhibitor (Ki), indicating higher tolerance to product inhibition. Consistent with Vmax, the order of turnover number (Kcat) is A-BG>yEdQ885-BG>S-BG≈yEdQ745-BG. With much lower Km and much higher Kcat, A-BG has a considerably higher catalytic efficiency (Kcat/Km) than the other enzymes. The catalytic efficiency of S-BG and yEdQ885-BG is quite close, which is higher than that of yEdQ745-BG. […]

The subject of test [4] is A-BG (Accellerase® BG from DuPont), commercial beta-glucosidase. Kind of test: BG kinetics, pNPG hydrolysis assay with glucose as competitive inhibitor, A-BG. The following applies: pNPG substrate, pH 5.0, 50° C. Here is the method:
as §3
as §5, with “One” for “BG activity assay using pNPG is one of the two commonly used standard assays to measure BG activity, which utilizes hydrolysis of p-nitrophenyl-β-D-glucopyranoside (pNPG) by BG into a yellow colored product, p-nitrophenol (pNP), that has a strong absorbance at 405 nm. One”
The range of substrate concentration was chosen to show detectable activity at the lowest concentration and saturation stage at high substrate concentration.
as §6, §7, §4

For the molecule `OC[C@H]1O[C@@H](O[C@H]2[C@H](O)[C@@H](O)C(O)O[C@@H]2CO)[C@H](O)[C@@H](O)[C@@H]1O` (stereo partly shown) [cellobiose], in test [1], the Kcat was 15.54 s⁻¹, the Kcat/Km stood at 9773.7 M⁻¹ s⁻¹, the Km was determined as 1590 ± 410 µM and the Vmax was determined as 7.77 ± 0.56 units/mg. In test [2], the Kcat was 67.803 s⁻¹, the Kcat/Km was determined as 10336 M⁻¹ s⁻¹, the Km came out at 6560 ± 890 µM and the Vmax worked out at 51.89 ± 2.53 units/mg.
Turning to `O=[N+]([O-])c1ccc(O[C@@H]2O[C@H](CO)[C@@H](O)[C@H](O)[C@H]2O)cc1` [pNPG, p-nitrophenyl-β-D-glucopyranoside], in test [3], the Kcat amounted to 8.4 s⁻¹, the Kcat/Km worked out at 20000 M⁻¹ s⁻¹, the Km was 420 ± 60 µM and the Vmax came out at 4.20 ± 0.14 U/mg. Also, in test [4], the Kcat worked out at 44.9232 s⁻¹, the Kcat/Km is 453769.7 M⁻¹ s⁻¹, the Km turned out to be 99 ± 12 µM and the Vmax turned out to be 34.38 ± 0.67 U/mg.
